Assay [1] concerns the target PD-L1 His protein / PD-1 Fc protein (Homo sapiens (Human), UniProt Q9NZQ7). As to the kind of experiment: HTRF Assay (PD-1/PD-L1 interaction). In kind it is binding. Conditions: PD-L1 His 6 nM, PD-1 Fc 6 nM.
Assay [2] deals with human PD-L1 (Homo sapiens (Human), UniProt Q9NZQ7). In words: T cell activation luciferase reporter cell culture system (T Cell Activation Assay). The format is cell-based. As to conditions: luciferase reporter assay; PD-L1 aAPC/CHO-K1 cells with PD-1 effector Jurkat T cells. A general note: Reporter assays use an easily measured gene product as a stand-in for the process of interest.

Structures are written as SMILES.

Sequence of PD-L1 His protein / PD-1 Fc protein (Q9NZQ7 19-238): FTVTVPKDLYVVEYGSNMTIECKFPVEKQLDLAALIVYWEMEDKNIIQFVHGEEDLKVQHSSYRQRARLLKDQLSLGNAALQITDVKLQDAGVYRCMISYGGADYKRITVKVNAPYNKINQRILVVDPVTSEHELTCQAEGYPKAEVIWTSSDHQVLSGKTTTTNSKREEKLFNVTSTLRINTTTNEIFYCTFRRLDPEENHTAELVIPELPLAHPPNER
Sequence of human PD-L1 (Q9NZQ7 19-290): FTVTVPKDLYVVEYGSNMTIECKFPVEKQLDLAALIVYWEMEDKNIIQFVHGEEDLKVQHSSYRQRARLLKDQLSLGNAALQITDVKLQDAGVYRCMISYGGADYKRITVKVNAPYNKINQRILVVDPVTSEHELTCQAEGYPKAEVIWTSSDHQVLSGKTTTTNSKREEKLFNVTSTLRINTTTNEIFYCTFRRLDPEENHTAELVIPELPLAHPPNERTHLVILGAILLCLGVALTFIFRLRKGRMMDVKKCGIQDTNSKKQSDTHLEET

As to `COCC(=O)N1CCC(NCc2ccc(-c3nccc(-c4cccc(-c5ccc(CNC6CCN(C(=O)COC)CC6)c(OC)n5)c4C(F)(F)F)c3Cl)cc2OC)CC1` [Example 602, 1-(4-(((6-(3-(3-Chloro-2-(3-methoxy-4-(((1-(2-methoxyacetyl)piperidin-4-yl)amino)methyl)phenyl)pyridin-4-yl)-2-(trifluoromethyl)phenyl)-2-methoxypyridin-3-yl)methyl)amino)piperidin-1-yl)-2-methoxyethan-1-one], in assay [1], the IC50 is 41.3 nM. For the same compound, the EC50 in assay [2] is at least 10000 nM.

Compound `COc1nc(-c2ccnc(-c3cccc4c3CC[C@@H]4Oc3nc(OC)c(CNC4(C(=O)O)CC4)cc3C(F)(F)F)c2Cl)ccc1CNC[C@@H]1CCC(=O)N1` [Compound 129, 1-(((6-(((S)-4-(3′-chloro-6-methoxy-5-(((((S)-5-oxopyrrolidin-2-yl)methyl)amino)methyl)-[2,4′-bipyridin]-2′-yl)-2,3-dihydro-1H-inden-1-yl)oxy)-2-methoxy-5-(trifluoromethyl)pyridin-3-yl)methyl)amino)cyclopropane-1-carboxylic acid] displayed an IC50 in assay [1] of 0.305 nM. In assay [2], this compound had an EC50 of 16.4 nM.

Turning to `COc1nc(-c2cccc(-c3ccnc(-c4ccc5c(CNC[C@H](C)O)cn(C)c5c4)c3Cl)c2Cl)ccc1CNC[C@@H]1CCC(=O)N1` [Compound 35, (S)-5-((((6-(2-chloro-3-(3-chloro-2-(3-((((S)-2-hydroxypropyl)amino)methyl)-1-methyl-1H-indol-6-yl)pyridin-4-yl)phenyl)-2-methoxypyridin-3-yl)methyl)amino)methyl)pyrrolidin-2-one], in assay [1], the IC50 is 1.1 nM. Besides, in assay [2], the EC50 amounted to 855 nM.

In assay [1], `COc1cc(-c2nccc(-c3cccc(-c4ccc(CNC5CCN(C(C)=O)CC5)c(OC)n4)c3Cl)c2Cl)cc2c1CN(C1CCN(CC(=O)O)C1=O)CC2` (centres unmarked) [Example 480, 2-(3-(6-(4-(3-(5-(((1-Acetylpiperidin-4-yl)amino)methyl)-6-methoxypyridin-2-yl)-2-chlorophenyl)-3-chloropyridin-2-yl)-8-methoxy-3,4-dihydroisoquinolin-2(1H)-yl)-2-oxopyrrolidin-1-yl)acetic acid] yielded an IC50 of 3.9 nM. The compound further displayed an EC50 in assay [2] of 1490 nM.

In assay [1], `COc1cc(-c2nccc(-c3cccc(-c4ccc(CNC5CCN(C(C)=O)CC5)c(OC)n4)c3Cl)c2Cl)ccc1CN(C)C1CCOCC1` [Example 427, 1-(4-(((6-(2-chloro-3-(3-chloro-2-(3-methoxy-4-((methyl(tetrahydro-2H-pyran-4-yl)amino)methyl)phenyl)pyridin-4-yl)phenyl)-2-methoxypyridin-3-yl)methyl)amino)piperidin-1-yl)ethan-1-one] had an IC50 of 8.8 nM. This compound also yielded an EC50 in assay [2] of 25 nM.

Turning to `COc1nc(-c2cccc(-c3nccc(-c4ccc(CN5CC6(CNC(=O)C6)C5)c(OC)n4)c3Cl)c2Cl)ccc1CN1CCC(O)CC1` [Compound 681, 2-((3′-Chloro-2′-(2-chloro-3-(5-((4-hydroxypiperidin-1-yl)methyl)-6-methoxypyridin-2-yl)phenyl)-6-methoxy-[2,4′-bipyridin]-5-yl)methyl)-2,6-diazaspiro[3.4]octan-7-one], 1.07 nM corresponded to half-maximal inhibition in assay [1] (IC50). Moreover, the response in assay [2] was half-maximal at 23.4 nM (EC50).

In the case of `COc1nc(-c2cccc(-c3ccnc(-c4ccc5c(c4)N(C)CCN(C[C@H](C)O)C5)c3Cl)c2Cl)ccc1CNC[C@@H]1CCC(=O)N1` [Compound 24, (S)-5-((((6-(2-chloro-3-(3-chloro-2-(4-((S)-2-hydroxypropyl)-1-methyl-2,3,4,5-tetrahydro-1H-benzo[e][1,4]diazepin-8-yl)pyridin-4-yl)phenyl)-2-methoxypyridin-3-yl)methyl)amino)methyl)pyrrolidin-2-one], inhibition in assay [1] was half-maximal at 0.8 nM (IC50). In assay [2], this compound came in with an EC50 of 87.2 nM.

`COc1nc(-c2cccc(-c3ccnc(-c4ccc5c(c4)CNC5)c3Cl)c2Cl)ccc1CNC[C@H](C)O` [Compound 161, (S)-1-(((6-(2-chloro-3-(3-chloro-2-(isoindolin-5-yl)pyridine-4-yl)phenyl)-2-methoxypyridin-3-yl)methyl)amino)propan-2-ol] displayed an IC50 in assay [1] of 0.73 nM. In assay [2], this compound yielded an EC50 of 387 nM.

In turn, `COc1cc(-c2ncnc(-c3cccc(-c4ccc(CN[C@H]5C[C@H](O)C5)c(OC)n4)c3Cl)c2Cl)ccc1CN[C@H]1C[C@H](O)C1` [Example 593, (1r,3r)-3-(((6-(2-Chloro-3-(5-chloro-6-(4-((((1r,3r)-3-hydroxycyclobutyl)amino)methyl)-3-methoxyphenyl)pyrimidin-4-yl)phenyl)-2-methoxypyridin-3-yl)methyl)amino)cyclobutan-1-ol] yielded an IC50 in assay [1] of 0.16 nM. The compound also gave an EC50 in assay [2] of 104 nM.

As for `CNCc1ccc(-c2cccc(-c3ccnc(-c4ccc(CNC[C@@H](O)CC(=O)OC(C)C)c(OC)c4)c3Cl)c2Cl)nc1OC` [Example 280, Isopropyl (S)-4-((4-(3-chloro-4-(2-chloro-3-(6-methoxy-5-((methylamino)methyl)pyridin-2-yl)phenyl)pyridin-2-yl)-2-methoxybenzyl)amino)-3-hydroxybutanoate], the IC50 in assay [1] is 28.7 nM. In addition, a half-maximal effect in assay [2] (EC50) was put at 111 nM.

`COCCC(=O)N1CC2(CN(Cc3ccc(-c4nccc(-c5cccc(-c6ccc(CN7CC8(C7)CN(C(=O)CCOC)C8)c(OC)n6)c5Cl)c4Cl)cc3OC)C2)C1` [Example 679, 1-(6-((6-(2-Chloro-3-(3-chloro-2-(3-methoxy-4-((6-(3-methoxypropanoyl)-2,6-diazaspiro[3.3]heptan-2-yl)methyl)phenyl)pyridin-4-yl)phenyl)-2-methoxypyridin-3-yl)methyl)-2,6-diazaspiro[3.3]heptan-2-yl)-3-methoxypropan-1-one] registered an IC50 in assay [1] of 0.16 nM. In assay [2], a half-maximal response (EC50) required 30.5 nM.

As to `CCC(=O)N1CCC(NCc2ccc(-c3nccc(-c4cccc(-c5ccc(CNC6CCN(C(=O)CC)CC6)c(OC)n5)c4Cl)c3Cl)cc2OC)CC1` [Example 344, 1-(4-(((6-(2-Chloro-3-(3-chloro-2-(3-methoxy-4-(((1-propionylpiperidin-4-yl)amino)methyl)phenyl)pyridin-4-yl)phenyl)-2-methoxypyridin-3-yl)methyl)amino)piperidin-1-yl)propan-1-one], the midpoint of inhibition in assay [1], the IC50, lay at 6.41 nM. This compound displayed a 50% effective concentration (EC50) in assay [2] of 14.9 nM.

In assay [1], `COC(=O)C1(CN2CCc3cc(-c4nccc(-c5cccc(-c6ccc(CN7CC8(CNC(=O)C8)C7)c(OC)n6)c5Cl)c4Cl)cc(OC)c3C2)CC1` [Example 295, Methyl 1-((6-(3-chloro-4-(2-chloro-3-(6-methoxy-5-((7-oxo-2,6-diazaspiro [3.4]octan-2-yl)methyl)pyridin-2-yl)phenyl)pyridin-2-yl)-8-methoxy-3,4-dihydroisoquinolin-2(1H)-yl)methyl)cyclopropane-1-carboxylate] returned an IC50 of 2.1 nM. In assay [2], this compound registered an EC50 of 233 nM.

Compound `COc1nc(-c2cccc(-c3ccnc(-c4ccc5c(CNC[C@@H]6CCCO6)cn(C)c5c4)c3Cl)c2Cl)ccc1CNC[C@@H]1CCC(=O)N1` [Compound 41, (S)-5-((((6-(2-chloro-3-(3-chloro-2-(1-methyl-3-(((((S)-tetrahydrofuran-2-yl)methyl)amino)methyl)-1H-indol-6-yl)pyridin-4-yl)phenyl)-2-methoxypyridin-3-yl)methyl)amino)methyl)pyrrolidin-2-one] showed an IC50 in assay [1] of 33.9 nM. For the same compound, the response in assay [2] was half-maximal at 164 nM (EC50).

In turn, `COCC1CCN(Cc2ccc(-c3nccc(-c4cccc(-c5ccc(CNC6CCN(C(C)=O)CC6)c(OC)n5)c4Cl)c3Cl)cc2OC)CC1` [Example 509, 1-(4-(((6-(2-Chloro-3-(3-chloro-2-(3-methoxy-4-((4-(methoxymethyl)piperidin-1-yl)methyl)phenyl)pyridin-4-yl)phenyl)-2-methoxypyridin-3-yl)methyl)amino)piperidin-1-yl)ethan-1-one] came in with an IC50 in assay [1] of 9.77 nM. The compound further came in with an EC50 in assay [2] of 100 nM.

In assay [1], `COc1nc(-c2cccc(-c3ccnc(-c4cc(OC)c5nc(CN6CC(C)(O)C6)cn5c4)c3Cl)c2Cl)ccc1CNC[C@@H]1CCC(=O)N1` [Example 317, (S)-5-((((6-(2-Chloro-3-(3-chloro-2-(2-((3-hydroxy-3-methylazetidin-1-yl)methyl)-8-methoxyimidazo[1,2-a]pyridin-6-yl)pyridin-4-yl)phenyl)-2-methoxypyridin-3-yl)methyl)amino)methyl)pyrrolidin-2-one] had an IC50 of 1.94 nM. The compound also had an EC50 in assay [2] of 62.6 nM.

With `CNCc1ccc(-c2nccc(-c3cccc(-c4ccc(CNC)c(OC)n4)c3Cl)c2Cl)cc1F` [Example 283, 1-(6-(2-Chloro-3-(3-chloro-2-(3-fluoro-4-((methylamino)methyl)phenyl)pyridin-4-yl)phenyl)-2-methoxypyridin-3-yl)-N-methylmethanamine], inhibition in assay [1] was half-maximal at 3.94 nM (IC50). This compound gave an EC50 in assay [2] of 36.7 nM.

`COc1nc(-c2cccc(-c3ccnc(-c4ccc5c(CN(C)C6CCN(C(C)=O)CC6)cn(C)c5c4)c3Cl)c2Cl)ccc1CNC[C@@H]1CCC(=O)N1` [Compound 56, (S)-5-((((6-(3-(2-(3-(((1-acetylpiperidin-4-yl)(methyl)amino)methyl)-1-methyl-1H-indol-6-yl)-3-chloropyridin-4-yl)-2-chlorophenyl)-2-methoxypyridin-3-yl)methyl)amino)methyl)pyrrolidin-2-one] came in with a half-inhibitory concentration (IC50) in assay [1] of 4 nM. In assay [2], this compound came in with an EC50 of 36.8 nM.

In assay [1], `COc1cc(-c2ncnc(-c3cccc(-c4ccc(CNC5CCN(C(C)=O)CC5)c(OC)n4)c3Cl)c2C)ccc1CNC1CCN(C(C)=O)CC1` [Example 522, 1-(4-(((6-(3-(6-(4-(((1-Acetylpiperidin-4-yl)amino)methyl)-3-methoxyphenyl)-5-methylpyrimidin-4-yl)-2-chlorophenyl)-2-methoxypyridin-3-yl)methyl)amino)piperidin-1-yl)ethan-1-one] came in with an IC50 of 2.05 nM. This compound displayed an EC50 in assay [2] of at least 10000 nM.

As a reminder, the IC50 is the point on the concentration scale where inhibition reaches its midpoint. Low values mean greater potency, high ones weaker potency. A word on the EC50: it is the concentration needed to bring the measured effect to its halfway point. A lower EC50 goes with greater potency.

The record behind these values is patent publication US20240246964A1 (Arbutus Biopharma Corporation, priority 2021, published 2024).
